In patent US10774082B2, “Quinazoline compound” (Astellas Pharma Inc., priority 2017, dated 2020):
Where two headings read alike, the source gives them in different places.

Key:
[1] = tested on: NCI-H1373 cells; experiment: Anchorage-independent cell proliferation inhibitory action, NCI-H1373 spheroid three-dimensional culture; assay type: cell-based, Human; conditions: read-out: IC50 (anchorage-independent cell proliferation inhibition)
In short: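 KRAS G12C NCI-H1373 cells were grown as spheroids in low-attachment U-bottom wells and treated the next day with compound, six points from 1,000 to 0.3 nM final. After six days at 37°C, viability was read by CellTiter-Glo luminescence. IC50 was fitted by Sigmoid-Emax regression, with DMSO set as 0% and cell-free medium as 100% inhibition.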

[2] = tested on: pERK in NCI-H1373 tumor; experiment: Intratumoral pERK inhibitory action in NCI-H1373 tumor of nude mice (TR-FRET); assay type: in vivo, mouse; conditions: for inhibition at 3 mg/kg: read-out: pERK inhibition (%); for inhibition at 10 mg/kg / pERK inhibition (%): 10 mg/kg
Experimental: Evaluation of Intratumoral pERK Inhibitory Action
The phosphorylation amount of ERK in tumor sample after administration of test compound was examined by using pERK measurement kit (Advanced ERK phospho-T202/Y204 kit, Cisbio co., Ltd) through a TR-FRET method.
2.0 to 5.0×10^6 NCI-H1373 cells were prepared by using a solution in which an equivalent amount of Matrigel (Becton. Dickinson and Company) was added to PBS, were injected subcutaneously in a volume of 100 μL and planted to male nude mice of 4-5 weeks old (CAnN.Cg-Foxn 1 nu/CrlCrlj (nu/nu), Charles River Laboratories Japan, Inc.), and then the male nude mice were used for the test 15 to 26 days later. The test was conducted with three mice in a solvent group and three mice in a test compound administration group, and the test compounds were prepared by using a solvent such that the dosage thereof is as indicated in Table 4. The test compound was administered subcutaneously or orally. For subcutaneous administration, physiological saline supplemented with equimolar hydrochloric acid was used as a solvent. For oral administration, 6% 2-hydroxypropyl-β-cyclodextrin (Sigma-Aldrich Co. LLC) was used as a solvent. Six hours after the administration, a tumor was excised from a cervical dislocated mouse under isoflurane anesthesia, and a part thereof was put into a 2 mL Eppendorf tube and frozen using liquid nitrogen. The tumor sample was stored in a deep freezer at −80° C. until it was subjected to the pERK measurement test.
500 μL of lysis buffer 1 (Phospholysis buffer [Cisbio Co., Ltd], Complete EDTA free [Roche Diagnostics K.K.], Phosphatase inhibitor cocktail 2 [Sigma-Aldrich Co. LLC]) and one bead (5 mm YTZ ball [Nikkato Corp.]) was added to the tumor sample, and crushed (frequency 25/s for 3 minutes) by using Tissue Lyser II (QIAGEN GmbH). The whole amount was transferred to a new tube and centrifuged (20,400×g for 10 minutes, 4° C.) by using a micro amount high speed cooling centrifuge so as to obtain a tumor lysate which is a supernatant. Protein quantification of tumor lysate was performed by using a protein quantification kit (Pierce 660 nm Protein Assay Kit [Thermo Fisher Scientific Inc.]), and each sample was diluted by using lysis buffer 2 (Phosphorysis buffer [Cisbio Co., Ltd], Blocking Agent [attached to pERK measurement kit]) such that the amount thereof is to be a final concentration of 0.5 μg/μL.
Each of p-ERK1/2 Cryptate antibody and p-ERK1/2 d2 antibody (attached to pERK measurement kit) was diluted 20-fold with each detection buffer (attached to pERK measurement kit), and thereby a mixed solution of these two types of antibodies was prepared. A mixed solution of antibody was added to a 384 well plate at a volume of 4 μL/well. Further, tumor lysate diluted to 0.5 μg/μL was added at a volume of 16 μL/well. After standing at room temperature in a wet box for about 17 hours, the fluorescence intensity at 620 nm and 665 nm was measured under the condition of excitation wavelength of 337 nm by using EnVision 2103 Multilabel Reader (PerkinElmer Co., Ltd.).

[3] = tested on: NCI-H1373 tumor; experiment: Antitumor effect in NCI-H1373 tumor-bearing mouse; assay type: in vivo; conditions: 10 mg/kg orally once a day for 13 or 14 days
Experimental: Evaluation of Antitumor Effect in Human KRAS G12C Mutation Positive Non-Small Cell Lung Cancer Strain NCI-H1373 Tumor-Bearing Mouse
A cell suspension prepared per 3.0×10^7/mL by suspending NCI-H1373 cells in PBS, an equivalent amount of Matrigel (Becton, Dickinson and Company) was added thereto, and the cell suspension was subcutaneously planted in a volume of 100 μL to male nude mice of 4-5 weeks old (CAnN.Cg-Foxnlnu/CrlCrlj (nu/nu), Charles River Laboratories Japan, Inc.). Approximately 2 weeks after planting, groups were divided so that tumor volume and body weight between the groups were almost equivalent to each other, and administration of the test compound was started from the next day. The test was conducted with five mice in a solvent group and five mice in a test compound administration group, and an aqueous solution of 6% 2-hydroxypropyl-β-cyclodextrin (Sigma-Aldrich Co. LLC) was orally administered to the solvent group and an aqueous solution of 6% 2-hydroxypropyl-β-cyclodextrin which the test compound (10 or 40 mg/kg) was mixed was orally administered to the test compound administration group. The administration was performed once a day for 13 or 14 days, and tumor diameter and volume were measured twice a week. For calculation of tumor volume, the following formula was used. [tumor volume (mm^3)]=[major diameter (mm) of tumor]×[minor diameter (mm) of tumor]^2×0.5
The tumor growth inhibition rate (%) by the test compound was calculated by setting the tumor volume of the test compound administration group on the day before the administration started as 100% inhibition, and the tumor volume of the solvent group on the last day of administration as 0% inhibition. In addition, in a case where the tumor volume of the test compound administration group was lower than the tumor volume on the day before the administration started, the tumor regression rate (%) of the test compound was calculated by setting the tumor volume on the day before the administration started as 0% regression, and the tumor volume 0 as 100% regression.

[4] = Homo sapiens, NCI-H1373, 144 h, NCI-H1373 spheroid, six days, CellTiter Glo
[5] = Mus musculus, NCI-H1373, po, 6 h, Oral administration, tumor six hours after administration
[6] = Mus musculus, NCI-H1373, sc, 6 h, Subcutaneous administration, tumor six hours after administration
[7] = Mus musculus, NCI-H1373, sc, 6 h
[8] = NCI-H1373 spheroid, six days, CellTiter Glo
[9] = Oral administration, tumor six hours after administration

Compound	IC50 [1, 4]	inhibition at 10 mg/kg [2, 5]	also measured
C=CC(=O)N1CC2(CCN(c3nc(OC4CCN(C)CC4)nc4c(OCC(F)F)c(-c5c(C)ccc6[nH]ncc56)c(C5CC5)cc34)CC2)C1 [Ex 3]	4.7 nM	–	inhibition at 1 mg/kg [2, 6]: 57%
C=CC(=O)N1CC2(CCN(c3nc(OC4CCN(CC)CC4)nc4c(OCC)c(-c5c(C)ccc6[nH]ncc56)c(C=C)cc34)CC2)C1 [Ex 7]	11 nM	–	inhibition at 3 mg/kg ([2]; Mus musculus, NCI-H1373, sc, 6 h, Subcutaneous administration, 3 mg/kg, tumor six hours after administration): 59%
C=CC(=O)N1CC2(CCN(c3nc(OC4CCN(CCOC)CC4)nc4c(OCC(F)(F)F)c(-c5c(C)ccc6[nH]ncc56)c(C5CC5)cc34)CC2)C1 [Ex 25]	–	66%	–
C=CC(=O)N1CC2(CCN(c3nc(OC4CCN(CCOC)CC4)nc4c(OCC(F)(F)F)c(-c5c(C)ccc6[nH]ncc56)c(C=C)cc34)CC2)C1 [Ex 26]	–	50%	–
C=CC(=O)N1CC2(CCN(c3nc(OC4CCN(CCCOC)CC4)nc4c(OCC(F)(F)F)c(-c5c(C)ccc6[nH]ncc56)c(C5CC5)cc34)CC2)C1 [Ex 28]	–	46%	–
C=CC(=O)N1CC2(CCN(c3nc(OC[C@@H]4CCCN4C)nc4c(OC5CCC5)c(-c5c(C)ccc6[nH]ncc56)c(C=C)cc34)CC2)C1 [Example 15]	–	–	IC50 ([1]; Homo sapiens, NCI-H1373, 144 h): 14 nM; inhibition at 3 mg/kg [2, 7]: 53%
C=CC(=O)N1CC2(CCN(c3nc(OC[C@@H]4CCCN4C)nc4c(OCC)c(-c5c(C)ccc6[nH]ncc56)c(C=C)cc34)CC2)C1 [Example 16]	–	–	IC50 ([1]; Homo sapiens, NCI-H1373, 144 h): 10 nM; inhibition at 3 mg/kg [2, 7]: 51%
C=CC(=O)N1CC2(CCN(c3nc(OC4CCN(C5COC5)CC4)nc4c(OCC(F)(F)F)c(-c5c(C)ccc6[nH]ncc56)c(C=C)cc34)CC2)C1 [Example 33]	8.7 nM	71%	–
C=CC(=O)N1CC2(CCN(c3nc(OC4CCN(CCOC)CC4)nc4c(OCC(F)(F)F)c(-c5c(C)ccc6[nH]ncc56)c(C5CC5)cc34)CC2)C1 [Example 35]	–	–	IC50 [1, 8]: 2.5 nM; pERK inhibition (%) [2, 9]: 68%; Antitumor effect: tumor regression rate [3]: 72% regression
C=CC(=O)N1CC2(CCN(c3nc(OC4CCN(CCOCC)CC4)nc4c(OCC(F)(F)F)c(-c5c(C)ccc6[nH]ncc56)c(C=C)cc34)CC2)C1 [Example 37]	–	–	IC50 [1, 8]: 8.8 nM; pERK inhibition (%) [2, 9]: 63%; Antitumor effect: tumor regression rate [3]: 58% regression
C=CC(=O)N1CC2(CCN(c3nc(OC4CCN(CC(C)(C)O)CC4)nc4c(OCC(F)(F)F)c(-c5c(C)ccc6[nH]ncc56)c(C=C)cc34)CC2)C1 [Example 40]	–	–	IC50 [1, 8]: 5.1 nM; pERK inhibition (%) [2, 9]: 58%; Antitumor effect: tumor regression rate [3]: 15% regression
C=CC(=O)N1CC2(CCN(c3nc(OC4CCN(Cc5ccccn5)CC4)nc4c(OCC(F)(F)F)c(-c5c(C)ccc6[nH]ncc56)c(C=C)cc34)CC2)C1 [Example 56]	21 nM	53%	–
C=CC(=O)N1CC2(CCN(c3nc(N4CC(N(C)C)C4)nc4c(OCC(F)(F)F)c(-c5c(C)ccc6[nH]ncc56)c(C=C)cc34)CC2)C1 [Example 65]	27 nM	68%	–

More lines, main results first:

IC50 [1, 4]	Compound	inhibition at 10 mg/kg [2, 5]	also measured
4.3 nM	C=CC(=O)N1CC2(CCN(c3nc(OC4CCN(C5CCOCC5)CC4)nc4c(OCC(F)(F)F)c(-c5c(C)ccc6[nH]ncc56)c(C=C)cc34)CC2)C1 (single isomer, unassigned) [Ex 39]	43%	–
320 nM	C=CC(=O)N1CCN(c2nc(OC3CCN(C)CC3)nc3c(F)c(-c4c(C)ccc5[nH]ncc45)c(Cl)cc23)CC1 [Compound C, reference compound]	–	inhibition at 30 mg/kg ([2]; Mus musculus, NCI-H1373, sc, 6 h, Subcutaneous administration, 30 mg/kg, tumor six hours after administration): 54%
6.2 nM	C=CC(=O)N1CC2(CCN(c3nc(OC4CCN(C)CC4)nc4c(OCC)c(-c5c(C)ccc6[nH]ncc56)c(C5CC5)cc34)CC2)C1 [Ex 2]	–	inhibition at 1 mg/kg [2, 6]: 54%
3.4 nM	C=CC(=O)N1CC2(CCN(c3nc(OC[C@@H]4CCCN4C)nc4c(OCC(F)F)c(-c5c(C)ccc6[nH]ncc56)c(C5CC5)cc34)CC2)C1 [Ex 4]	–	inhibition at 1 mg/kg [2, 6]: 58%
6.1 nM	C=CC(=O)N1CC2(CCN(c3nc(OC4CCN(C)CC4)nc4c(OCC)c(-c5c(C)ccc6[nH]ncc56)c(C=C)cc34)CC2)C1 [Ex 24]	–	inhibition at 40 mg/kg ([2]; Mus musculus, NCI-H1373, po, 6 h, Oral administration, 40 mg/kg, tumor six hours after administration): 72%
5.4 nM	C=CC(=O)N1CC2(CCN(c3nc(OC4CCN(C5CCOCC5)CC4)nc4c(OCC(F)(F)F)c(-c5c(C)ccc6[nH]ncc56)c(C=C)cc34)CC2)C1 [Ex 30]	56%	–
10 nM	C=CC(=O)N1CC2(CCN(c3nc(OC4CCN(CCOCC)CC4)nc4c(OCC(F)(F)F)c(-c5c(C)ccc6[nH]ncc56)c(C=C)cc34)CC2)C1 [Example 29]	62%	–
7.1 nM	C=CC(=O)N1CC2(CCN(c3nc(OC4CCN(CCOC)CC4)nc4c(OCC(F)F)c(-c5c(C)ccc6[nH]ncc56)c(C5CC5)cc34)CC2)C1 [Example 32]	55%	–
7.5 nM	C=CC(=O)N1CC2(CCN(c3nc(OC4CCN(C5COC5)CC4)nc4c(OCC)c(-c5c(C)ccc6[nH]ncc56)c(C5CC5)cc34)CC2)C1 [Example 34]	54%	–
16 nM	C=CC(=O)N1CC2(CCN(c3nc(N4CCN(C)CC4)nc4c(OCC(F)(F)F)c(-c5c(C)ccc6[nH]ncc56)c(C=C)cc34)CC2)C1 [Example 50]	63%	–
16 nM	C=CC(=O)N1CC2(CCN(c3nc(OC4CCN(C)CC4F)nc4c(OCC(F)(F)F)c(-c5c(C)ccc6[nH]ncc56)c(C=C)cc34)CC2)C1 (stereo not drawn) [Example 52]	68%	–
